Measured values reported in ChEMBL document CHEMBL1201862, “PubChem BioAssay data set” (2004).
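Each compound was tested at five concentrations against cells in 96-well plates for 48 hours. At the GI50, growth is halved.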 Active and inactive are the calls of the source. Rule as the data show it: active = GI50 up to about 1.1 µM and inactive = higher.

Columns and labels:
Test in all cases: growth of human tumour cells (NCI), 48 h
EKVX = system: EKVX
NCI-H23 = system: NCI-H23
SN12C = system: SN12C
SK-MEL-5 = system: SK-MEL-5
SK-MEL-2 = system: SK-MEL-2
SK-OV-3 = system: SK-OV-3
COLO 205 = system: COLO 205
786-0 = system: 786-0
HCT-15 = system: HCT-15
A549 = system: A549
UACC-257 = system: UACC-257
SNB-19 = system: SNB-19
M14 = system: M14
BT-549 = system: BT-549
SR = system: SR
OVCAR-4 = system: OVCAR-4
HOP-92 = system: HOP-92
T47D = system: T47D
NCI/ADR-RES = system: NCI/ADR-RES
TK-10 = system: TK-10
UACC-62 = system: UACC-62
NCI-H460 = system: NCI-H460
Hs-578T = system: Hs-578T
HL-60 = system: HL-60
IGROV-1 = system: IGROV-1
K562 = system: K562
A498 = system: A498
U-251 = system: U-251
NCI-H522 = system: NCI-H522
SNB-75 = system: SNB-75
HT-29 = system: HT-29
MDA-MB-435 = system: MDA-MB-435
CAKI-1 = system: CAKI-1
SF-295 = system: SF-295
MDA-MB-231 = system: MDA-MB-231
SW-620 = system: SW-620
ACHN = system: ACHN
KM12 = system: KM12
RPMI-8226 = system: RPMI-8226
OVCAR-5 = system: OVCAR-5
OVCAR-3 = system: OVCAR-3
SF-268 = system: SF-268
UO-31 = system: UO-31
SK-MEL-28 = system: SK-MEL-28
PC-3 = system: PC-3
RXF 393 = system: RXF 393
LOX IMVI = system: LOX IMVI
NCI-H226 = system: NCI-H226
MDA-N = system: MDA-N
HOP-62 = system: HOP-62
OVCAR-8 = system: OVCAR-8
CCRF-CEM = system: CCRF-CEM
HCT-116 = system: HCT-116
MCF7 = system: MCF7
Malme-3M = system: Malme-3M
DU-145 = system: DU-145
MOLT-4 = system: MOLT-4
SF-539 = system: SF-539
HCC 2998 = system: HCC 2998

## COc1ccc(Cc2ccccc2C(=O)O)c2ccccc12
EKVX
  GI50: 26.4 µM (inactive)
NCI-H23
  GI50: 25.5 µM (inactive)
SN12C
  GI50: 29.2 µM (inactive)
SK-MEL-5
  GI50: 17.3 µM (inactive)
SK-MEL-2
  GI50: 22.2 µM (inactive)
SK-OV-3
  GI50: 40.6 µM (inactive)
COLO 205
  GI50: 17.9 µM (inactive)
786-0
  GI50: 34.2 µM (inactive)
HCT-15
  GI50: 28.2 µM
A549
  GI50: 33 µM (inactive)
UACC-257
  GI50: 24.7 µM (inactive)
SNB-19
  GI50: 37.3 µM (inactive)
M14
  GI50: 35.6 µM (inactive)
BT-549
  GI50: 39.2 µM (inactive)
SR
  GI50: 31.5 µM (inactive)
OVCAR-4
  GI50: 36.6 µM (inactive)
HOP-92
  GI50: 18.8 µM (inactive)
T47D
  GI50: 44.4 µM (inactive)
NCI/ADR-RES
  GI50: 32.5 µM (inactive)
TK-10
  GI50: 24 µM (inactive)
UACC-62
  GI50: 16.3 µM (inactive)
NCI-H460
  GI50: 18.8 µM (inactive)
Hs-578T
  GI50: 12.1 µM (inactive)
HL-60
  GI50: 21 µM (inactive)
IGROV-1
  GI50: 30.6 µM (inactive)
K562
  GI50: 37 µM (inactive)
A498
  GI50: 22.8 µM (inactive)
U-251
  GI50: 25.7 µM (inactive)
NCI-H522
  GI50: 20.3 µM (inactive)
SNB-75
  GI50: 34.4 µM (inactive)
HT-29
  GI50: 28.8 µM (inactive)
MDA-MB-435
  GI50: 22 µM (inactive)
CAKI-1
  GI50: 35.3 µM (inactive)
SF-295
  GI50: 28.4 µM (inactive)
MDA-MB-231
  GI50: 32 µM (inactive)
SW-620
  GI50: 31.6 µM (inactive)
ACHN
  GI50: 31.2 µM (inactive)
KM12
  GI50: 18.7 µM (inactive)
RPMI-8226
  GI50: 29.4 µM (inactive)
OVCAR-5
  GI50: 24.3 µM (inactive)
OVCAR-3
  GI50: 20.7 µM (inactive)
SF-268
  GI50: 22.8 µM (inactive)
UO-31
  GI50: 32.1 µM (inactive)
SK-MEL-28
  GI50: 25.1 µM (inactive)
PC-3
  GI50: 30.6 µM (inactive)
RXF 393
  GI50: 44.3 µM (inactive)
LOX IMVI
  GI50: 23.2 µM (inactive)
NCI-H226
  GI50: 39.4 µM (inactive)
MDA-N
  GI50: 27.6 µM (inactive)
HOP-62
  GI50: 36.6 µM (inactive)
OVCAR-8
  GI50: 28.5 µM (inactive)
CCRF-CEM
  GI50: 26.1 µM (inactive)
HCT-116
  GI50: 20.7 µM (inactive)
MCF7
  GI50: 38.1 µM (inactive)
Malme-3M
  GI50: 21.8 µM (inactive)
DU-145
  GI50: 37.5 µM (inactive)

## CCOc1ccc2nc(NC(NC(=O)c3cccnc3)(C(F)(F)F)C(F)(F)F)sc2c1
EKVX
  GI50: 22.6 µM (inactive)
NCI-H23
  GI50: 22.8 µM (inactive)
MOLT-4
  GI50: 20.4 µM (inactive)
SN12C
  GI50: 25.2 µM (inactive)
SK-MEL-5
  GI50: 20.5 µM (inactive)
SK-MEL-2
  GI50: 38.5 µM (inactive)
SK-OV-3
  GI50: 93.8 µM (inactive)
COLO 205
  GI50: 34.1 µM (inactive)
786-0
  GI50: 26.5 µM (inactive)
HCT-15
  GI50: 26 µM
A549
  GI50: 31.4 µM (inactive)
UACC-257
  GI50: 25.5 µM (inactive)
SNB-19
  GI50: 51.9 µM (inactive)
M14
  GI50: 34.1 µM (inactive)
BT-549
  GI50: 30.2 µM (inactive)
SR
  GI50: 24.9 µM (inactive)
OVCAR-4
  GI50: 24 µM (inactive)
SF-539
  GI50: 49.2 µM (inactive)
HOP-92
  GI50: 20.5 µM (inactive)
T47D
  GI50: 21 µM (inactive)
HCC 2998
  GI50: 22.4 µM (inactive)
NCI/ADR-RES
  GI50: 25.8 µM (inactive)
TK-10
  GI50: 33.9 µM (inactive)
UACC-62
  GI50: 25.6 µM (inactive)
NCI-H460
  GI50: 28.6 µM (inactive)
Hs-578T
  GI50: > 100 µM (inactive)
HL-60
  GI50: 32.4 µM (inactive)
K562
  GI50: 38.4 µM (inactive)
U-251
  GI50: 42.5 µM (inactive)
NCI-H522
  GI50: 23.4 µM (inactive)
SNB-75
  GI50: 23.3 µM (inactive)
HT-29
  GI50: 14.1 µM (inactive)
MDA-MB-435
  GI50: 22.2 µM (inactive)
CAKI-1
  GI50: 38.3 µM (inactive)
SF-295
  GI50: 42 µM (inactive)
MDA-MB-231
  GI50: 66.1 µM (inactive)
SW-620
  GI50: 46.1 µM (inactive)
ACHN
  GI50: 29.3 µM (inactive)
KM12
  GI50: 29.3 µM (inactive)
OVCAR-5
  GI50: 25.6 µM (inactive)
OVCAR-3
  GI50: 32.6 µM (inactive)
SF-268
  GI50: 56.8 µM (inactive)
UO-31
  GI50: 6.84 µM (inactive)
SK-MEL-28
  GI50: 35.2 µM (inactive)
PC-3
  GI50: 31.7 µM (inactive)
RXF 393
  GI50: 21 µM (inactive)
NCI-H226
  GI50: 44 µM (inactive)
MDA-N
  GI50: 15.6 µM (inactive)
OVCAR-8
  GI50: 26.7 µM (inactive)
CCRF-CEM
  GI50: 17.1 µM (inactive)
HCT-116
  GI50: 25.4 µM (inactive)
MCF7
  GI50: 25.5 µM (inactive)
Malme-3M
  GI50: 51.1 µM (inactive)
DU-145
  GI50: 35.7 µM (inactive)

## Cc1cn(CCCCOC(=O)NC(CCCNC(N)=O)C(=O)O)c(=O)[nH]c1=O (stereo not given)
EKVX
  GI50: > 100 µM (inactive)
NCI-H23
  GI50: > 100 µM (inactive)
MOLT-4
  GI50: > 100 µM (inactive)
SN12C
  GI50: > 100 µM (inactive)
SK-MEL-2
  GI50: > 100 µM (inactive)
SK-OV-3
  GI50: > 100 µM (inactive)
COLO 205
  GI50: > 100 µM (inactive)
786-0
  GI50: > 100 µM (inactive)
HCT-15
  GI50: > 100 µM
A549
  GI50: > 100 µM (inactive)
UACC-257
  GI50: > 100 µM (inactive)
SNB-19
  GI50: > 100 µM (inactive)
M14
  GI50: > 100 µM (inactive)
BT-549
  GI50: > 100 µM (inactive)
SR
  GI50: > 100 µM (inactive)
OVCAR-4
  GI50: > 100 µM (inactive)
SF-539
  GI50: > 100 µM (inactive)
HOP-92
  GI50: > 100 µM (inactive)
T47D
  GI50: > 100 µM (inactive)
HCC 2998
  GI50: > 100 µM (inactive)
NCI/ADR-RES
  GI50: > 100 µM (inactive)
TK-10
  GI50: > 100 µM (inactive)
UACC-62
  GI50: > 100 µM (inactive)
NCI-H460
  GI50: > 100 µM (inactive)
Hs-578T
  GI50: > 100 µM (inactive)
HL-60
  GI50: > 100 µM (inactive)
IGROV-1
  GI50: > 100 µM (inactive)
K562
  GI50: > 100 µM (inactive)
U-251
  GI50: > 100 µM (inactive)
SNB-75
  GI50: > 100 µM (inactive)
HT-29
  GI50: > 100 µM (inactive)
MDA-MB-435
  GI50: > 100 µM (inactive)
CAKI-1
  GI50: > 100 µM (inactive)
SF-295
  GI50: > 100 µM (inactive)
MDA-MB-231
  GI50: > 100 µM (inactive)
SW-620
  GI50: > 100 µM (inactive)
ACHN
  GI50: > 100 µM (inactive)
KM12
  GI50: > 100 µM (inactive)
RPMI-8226
  GI50: > 100 µM (inactive)
OVCAR-5
  GI50: > 100 µM (inactive)
OVCAR-3
  GI50: > 100 µM (inactive)
SF-268
  GI50: > 100 µM (inactive)
UO-31
  GI50: > 100 µM (inactive)
SK-MEL-28
  GI50: > 100 µM (inactive)
PC-3
  GI50: > 100 µM (inactive)
RXF 393
  GI50: > 100 µM (inactive)
LOX IMVI
  GI50: > 100 µM (inactive)
NCI-H226
  GI50: > 100 µM (inactive)
MDA-N
  GI50: > 100 µM (inactive)
HOP-62
  GI50: > 100 µM (inactive)
OVCAR-8
  GI50: > 100 µM (inactive)
CCRF-CEM
  GI50: > 100 µM (inactive)
HCT-116
  GI50: > 100 µM (inactive)
MCF7
  GI50: > 100 µM (inactive)
DU-145
  GI50: > 100 µM (inactive)
